According to the supplement of paper PMC10307832:

Experiments:
Test in all cases: relative viability (nuclei count vs DMSO), 5 days (fraction); higher = more cells survive
AZD5582 + Lapatinib = compound: C[C@@H](C(=O)N[C@@H](C1CCCCC1)C(=O)N2CCC[C@H]2C(=O)N[C@@H]3[C@@H](CC4=CC=CC=C34)OCC#CC#CCO[C@@H]5CC6=CC=CC=C6[C@@H]5NC(=O)[C@@H]7CCCN7C(=O)[C@H](C8CCCCC8)NC(=O)[C@H](C)NC)NC [AZD5582] + CS(=O)(=O)CCNCc1ccc(-c2ccc3ncnc(Nc4ccc(OCc5cccc(F)c5)c(Cl)c4)c3c2)o1 [Lapatinib] (partner 2 µM)
Procedure, shortened: (§1)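 Dosing by pin tool came one day after lung cancer cell lines were seeded in 1536-well plates, using either one drug or a fixed anchor-drug dose plus five library-drug doses (not always all listed) in √10 steps. After 5 days, nuclei were counted on 4× images. Relative viability is treated-well nuclei count divided by vehicle-well nuclei count, and values are medians of duplicate plates.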

[1] = compound: Cn1nnc2c(C(N)=O)ncn2c1=O [Temozolomide] + CC(C)C[C@H](NC(=O)[C@H](Cc1ccccc1)NC(=O)c1cnccn1)B(O)O [Bortezomib] (partner 0.002 µM)
Procedure, shortened: as §1

[2] = compound: Cn1nnc2c(C(N)=O)ncn2c1=O [Temozolomide] + CC1(C)CCC(c2ccc(Cl)cc2)=C(CN2CCN(c3ccc(C(=O)NS(=O)(=O)c4ccc(N[C@H](CCN5CCOCC5)CSc5ccccc5)c(S(=O)(=O)C(F)(F)F)c4)cc3)CC2)C1 [Navitoclax] (partner 0.5 µM)
Procedure, shortened: as §1

AZD5582 + Linsitinib = compound: C[C@@H](C(=O)N[C@@H](C1CCCCC1)C(=O)N2CCC[C@H]2C(=O)N[C@@H]3[C@@H](CC4=CC=CC=C34)OCC#CC#CCO[C@@H]5CC6=CC=CC=C6[C@@H]5NC(=O)[C@@H]7CCCN7C(=O)[C@H](C8CCCCC8)NC(=O)[C@H](C)NC)NC [AZD5582] + C[C@]1(O)C[C@@H](c2nc(-c3ccc4ccc(-c5ccccc5)nc4c3)c3c(N)nccn32)C1 [Linsitinib] (partner 1 µM)
Procedure, shortened: as §1

In the case of NCI-H1703, the relative viability (AZD5582 + Lapatinib; first compound 0.001581 µM) is reported as 0.815, the relative viability (AZD5582 + Lapatinib; first compound 0.005 µM) is reported as 0.691 and the relative viability (AZD5582 + Lapatinib; first compound 0.01581 µM) is reported as 1.16. It also gave a relative viability (AZD5582 + Lapatinib; first compound 0.05 µM) of 0.681, a relative viability ([1]; first compound 0.2 µM) of 0.29 and a relative viability ([1]; first compound 0.6325 µM) of 0.471. For the same cell line, the relative viability ([1]; first compound 2 µM) was 0.365, the relative viability ([1]; first compound 6.325 µM) was 0.241 and the relative viability ([1]; first compound 20 µM) was 0.284. It also gave a relative viability ([2]; first compound 0.2 µM) of 1.21, a relative viability ([2]; first compound 0.6325 µM) of 1.2 and a relative viability ([2]; first compound 2 µM) of 1.28. For the same cell line, the relative viability ([2]; first compound 6.325 µM) was 0.947, the relative viability ([2]; first compound 20 µM) was 1.37 and the relative viability (AZD5582 + Linsitinib; first compound 0.005 µM) was 0.666. The relative viability (AZD5582 + Linsitinib; first compound 0.01581 µM) was 1.02 and the relative viability (AZD5582 + Linsitinib; first compound 0.05 µM) was 0.44.
